# Assay results: article PMC10385824, “Antiproliferative and Tubulin-Destabilising Effects of 3-(Prop-1-en-2-yl)azetidin-2-Ones and Related Compounds in MCF-7 and MDA-MB-231 Breast Cancer Cells” (Pharmaceuticals, 2023)
# Where two headings read alike, the source gives them in different places.
# How the values were obtained:
# CCRF-CEM = experiment: NCI-60 SRB screen, leukemia; type: cell-based; conditions: Homo sapiens, 48 h
# RPMI-8226 = experiment: NCI-60 SRB screen, leukemia; type: cell-based, human; conditions: Homo sapiens
# NCI/ADR-RES = experiment: NCI-60 SRB screen, ovarian cancer; type: cell-based, human; conditions: Homo sapiens, 48 h
# HCT-116 = experiment: NCI-60 SRB screen, colon cancer; type: cell-based, human; conditions: Homo sapiens
# SF295 = experiment: NCI-60 SRB screen, CNS cancer; type: cell-based, human; conditions: Homo sapiens
# IGROV1 = experiment: NCI-60 SRB screen, ovarian cancer; type: cell-based, human; conditions: Homo sapiens
# ACHN = experiment: NCI-60 SRB screen, renal cancer; type: cell-based, human; conditions: Homo sapiens, 48 h
# NCI-H332M = experiment: NCI-60 SRB screen, non-small cell lung cancer; type: cell-based; conditions: Homo sapiens, 48 h
# A549/ATCC = experiment: NCI-60 SRB screen, non-small cell lung cancer; type: cell-based, human; conditions: Homo sapiens
# OVCAR-4 = experiment: NCI-60 SRB screen, ovarian cancer; type: cell-based, human; conditions: Homo sapiens
# OVCAR-8 = experiment: NCI-60 SRB screen, ovarian cancer; type: cell-based, human; conditions: Homo sapiens
# MCF-7 = experiment: cells; conditions: Homo sapiens, MCF7, 48 h
# SK-MEL-2 = experiment: NCI-60 SRB screen, melanoma; type: cell-based, human; conditions: Homo sapiens; SK-MEL-2; five dose 0.01–100 µM, 48 h; read-out: GI50
# [1] = tested on: NCI 60 human cancer cell line panel; experiment: NCI 60 cell line screen (SRB), panel values; conditions: for CC50: read-out: Mean LC50; for IC (TGI (total growth inhibition)): read-out: Mean TGI
# UO-31 = experiment: NCI-60 SRB screen, renal cancer; type: cell-based, human; conditions: Homo sapiens
# K-562 = experiment: NCI-60 SRB screen, leukemia; type: cell-based, human; conditions: Homo sapiens, K562, 48 h
# SNB-75 = experiment: NCI-60 SRB screen, CNS cancer; type: cell-based, human; conditions: Homo sapiens
# UACC-62 = experiment: NCI-60 SRB screen, melanoma; type: cell-based, human; conditions: Homo sapiens
# MOLT-4 = experiment: NCI-60 SRB screen, leukemia; type: cell-based, human; conditions: Homo sapiens
# CAKI-1 = experiment: NCI-60 SRB screen, renal cancer; type: cell-based, human; conditions: Homo sapiens
# TK-10 = experiment: NCI-60 SRB screen, renal cancer; type: cell-based, human; conditions: Homo sapiens
# U251 = experiment: NCI-60 SRB screen, CNS cancer; type: cell-based, human; conditions: Homo sapiens
# OVCAR-3 = experiment: NCI-60 SRB screen, ovarian cancer; type: cell-based, human; conditions: Homo sapiens
# RXF 393 = experiment: NCI-60 SRB screen, renal cancer; type: cell-based, human; conditions: Homo sapiens
# A498 = experiment: NCI-60 SRB screen, renal cancer; type: cell-based, human; conditions: Homo sapiens
# [2] = tested on: purified bovine brain tubulin; experiment: Tubulin polymerization assay (light scattering, BK006 kit); type: biochemical; conditions: compound at 10 μM; for Fold Reduction in Vmax: relative to vehicle
# How it was run: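 Compounds tested at 10 µM against vehicle (1% DMSO or EtOH) with bovine brain tubulin, 3 mg/mL, in pH 6.9 PIPES buffer containing 1 mM GTP and 10% glycerol, 37 °C. Light scattering at 340 nm tracked microtubule formation; average of two independent runs reported.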
# MDA-MB-468 = experiment: NCI-60 SRB screen, breast cancer; type: cell-based, human; conditions: Homo sapiens
# SK-MEL-28 = experiment: NCI-60 SRB screen, melanoma; type: cell-based, human; conditions: Homo sapiens
# [3] = five dose 0.01–100 µM, read-out: GI50
# [4] = RPMI-8226, five dose 0.01–100 µM, 48 h, read-out: GI50
# [5] = HCT-116, five dose 0.01–100 µM, 48 h, read-out: GI50
# [6] = SF-295, SF295, five dose 0.01–100 µM, 48 h, read-out: GI50
# [7] = IGROV-1, IGROV1, five dose 0.01–100 µM, 48 h, read-out: GI50
# [8] = A549/ATCC, five dose 0.01–100 µM, 48 h, read-out: GI50
# [9] = OVCAR-4, five dose 0.01–100 µM, 48 h, read-out: GI50
# [10] = OVCAR-8, five dose 0.01–100 µM, 48 h, read-out: GI50
# [11] = Homo sapiens, 60 cell, read-out: Mean GI50, mean over all NCI 60 cell lines
# [12] = read-out: Mean GI50, mean over all NCI 60 cell lines
# [13] = UO-31, five dose 0.01–100 µM, 48 h, read-out: GI50
# [14] = SNB-75, five dose 0.01–100 µM, 48 h, read-out: GI50
# [15] = UACC-62, five dose 0.01–100 µM, 48 h, read-out: GI50
# [16] = MOLT-4, five dose 0.01–100 µM, 48 h, read-out: GI50
# [17] = CAKI-1, five dose 0.01–100 µM, 48 h, read-out: GI50
# [18] = TK-10, five dose 0.01–100 µM, 48 h, read-out: GI50
# [19] = U-251, U251, five dose 0.01–100 µM, 48 h, read-out: GI50
# [20] = OVCAR-3, five dose 0.01–100 µM, 48 h, read-out: GI50
# [21] = RXF 393, five dose 0.01–100 µM, 48 h, read-out: GI50
# [22] = A498, five dose 0.01–100 µM, 48 h, read-out: GI50
# [23] = MDA-MB-468, five dose 0.01–100 µM, 48 h, read-out: GI50
# [24] = SK-MEL-28, five dose 0.01–100 µM, 48 h, read-out: GI50
smiles,measurement,setting,value
"C=CCC1C(=O)N(c2cc(OC)c(OC)c(OC)c2)C1c1ccc(OC)c(O)c1 (stereo not shown) [10p, 4-(3-Hydroxy-4-methoxyphenyl)-1-(3,4,5-trimethoxyphenyl)-3-allylazetidin-2-one]",GI50,CCRF-CEM; [3],36.1 nM
same,GI50,RPMI-8226; [4],40.6 nM
same,GI50,NCI/ADR-RES; [3],20.6 nM
same,GI50,HCT-116; [5],24.9 nM
same,GI50,SF295; [6],29.1 nM
same,GI50,IGROV1; [7],44.8 nM
same,GI50,ACHN; [3],53.2 nM
same,GI50,NCI-H332M; [3],51.2 nM
same,GI50,A549/ATCC; [8],37.3 nM
same,GI50,OVCAR-4; [9],39.7 nM
same,GI50,OVCAR-8; [10],34 nM
same,GI50,MCF-7,35.3 nM
same,GI50,SK-MEL-2,301 nM
same,GI50,[1]; [11],< 91.2 nM
same,CC50,"[1]; Homo sapiens, 60 cell",93300 nM
same,IC (TGI (total growth inhibition)),"[1]; Homo sapiens, 60 cell",35500 nM
same,GI50,[1]; [12],61.7 nM
same,GI50,UO-31; [13],85.8 nM
same,GI50,K-562; read-out: GI50,43.1 nM
same,GI50,SNB-75; [14],44.8 nM
same,GI50,UACC-62; [15],32 nM
same,GI50,MOLT-4; [16],40.8 nM
same,GI50,CAKI-1; [17],44 nM
same,GI50,TK-10; [18],80.2 nM
same,GI50,U251; [19],31.7 nM
same,GI50,OVCAR-3; [20],23.3 nM
same,GI50,RXF 393; [21],41 nM
same,GI50,A498; [22],17.5 nM
same,Fold Reduction in Vmax,[2],4.5
same,GI50,MDA-MB-468; [23],25 nM
same,GI50,SK-MEL-28; [24],76200 nM
"C=C/C=C/C1C(=O)N(c2cc(OC)c(OC)c(OC)c2)C1c1ccc(OC)c(N)c1 (stereo not shown) [11r, (E)-4-(3-Amino-4-methoxyphenyl)-3-(buta-1,3-dien-1-yl)-1-(3,4,5-trimethoxyphenyl)azetidin-2-one]",GI50,CCRF-CEM,36.5 nM
same,GI50,"RPMI-8226; RPMI-8226, 48 h",34.8 nM
same,GI50,NCI/ADR-RES,19.6 nM
same,GI50,"HCT-116; HCT-116, 48 h",27.2 nM
same,GI50,"SF295; SF-295, 48 h",30.1 nM
same,GI50,"IGROV1; IGROV-1, 48 h",46.6 nM
same,GI50,ACHN,61.4 nM
same,GI50,NCI-H332M,57.9 nM
same,GI50,"A549/ATCC; A549, 48 h",38 nM
same,GI50,"OVCAR-4; OVCAR-4, 48 h",38.8 nM
same,GI50,"OVCAR-8; OVCAR-8, 48 h",38.4 nM
same,GI50,MCF-7,33.6 nM
same,GI50,[1]; [11],< 91.2 nM
same,CC50,"[1]; Homo sapiens, 60 cell",77600 nM
same,IC (TGI (total growth inhibition)),"[1]; Homo sapiens, 60 cell",38000 nM
same,GI50,[1]; [12],91.2 nM
same,GI50,"UO-31; UO-31, 48 h",190 nM
same,GI50,K-562,39.3 nM
same,GI50,"SNB-75; SNB-75, 48 h",36.8 nM
same,GI50,"UACC-62; UACC-62, 48 h",39.6 nM
same,GI50,"MOLT-4; MOLT-4, 48 h",39.6 nM
same,GI50,"CAKI-1; CAKI-1, 48 h",63.1 nM
same,GI50,"TK-10; TK-10, 48 h",74.8 nM
same,GI50,"U251; U-251, 48 h",35.7 nM
same,GI50,"OVCAR-3; OVCAR-3, 48 h",26.2 nM
same,GI50,"RXF 393; RXF 393, 48 h",45.7 nM
same,GI50,"A498; A498, 48 h",22.3 nM
same,Vmax,"[2]; 37 °C, 340 nm",0.0035 mOD/min
same,Fold Reduction in Vmax,[2],2.0
same,GI50,"MDA-MB-468; MDA-MB-468, 48 h",26.7 nM
same,GI50,"SK-MEL-28; SK-MEL-28, 48 h",> 100000 nM
"COc1ccc(C2C(C(C)C)C(=O)N2c2cc(OC)c(OC)c(OC)c2)cc1OP(=O)(O)O (stereo not shown) [15b, 5-(3-Isopropyl-1-(3,4,5-trimethoxyphenyl)-4-oxoazetidin-2-yl)-2-methoxyphenyl dihydrogen phosphate]",GI50,CCRF-CEM; [3],356 nM
same,GI50,RPMI-8226; [4],478 nM
same,GI50,NCI/ADR-RES; [3],212 nM
same,GI50,HCT-116; [5],319 nM
same,GI50,SF295; [6],137 nM
same,GI50,IGROV1; [7],434 nM
same,GI50,ACHN; [3],359 nM
same,GI50,"NCI-H332M; […], five dose 0.01–100 µM, read-out: GI50",592 nM
same,GI50,A549/ATCC; [8],353 nM
same,GI50,OVCAR-4; [9],282 nM
same,GI50,OVCAR-8; [10],300 nM
same,GI50,MCF-7,244 nM
same,GI50,SK-MEL-2,500 nM
same,GI50,[1]; [11],525 nM
same,CC50,"[1]; Homo sapiens, 60 cell",93300 nM
same,IC (TGI (total growth inhibition)),"[1]; Homo sapiens, 60 cell",44700 nM
same,GI50,UO-31; [13],538 nM
same,GI50,K-562; read-out: GI50,374 nM
same,GI50,SNB-75; [14],116 nM
same,GI50,UACC-62; [15],131 nM
same,GI50,MOLT-4; [16],493 nM
same,GI50,CAKI-1; [17],320 nM
same,GI50,TK-10; [18],695 nM
same,GI50,U251; [19],276 nM
same,GI50,OVCAR-3; [20],270 nM
same,GI50,RXF 393; [21],282 nM
same,GI50,A498; [22],104 nM
same,GI50,MDA-MB-468; [23],273 nM
same,GI50,SK-MEL-28; [24],389 nM
